Values after ≈ are worked out from the molar mass of the structure shown. Like-named read-outs stand apart in the source and are kept apart here.
Tests used:
Pseudomonas aeruginosa = assay type: cell-based; settings: for MIC value: Table 15, unit inferred
Source text: (§1) The experiments were repeated three times.

Enterococcus faecalis = assay type: cell-based; settings: strain not given, Table 14, preliminary screening
Method: MIC values for compounds (1-11) were assessed using 96-well plate format with Mueller Hinton (MH) broth, using the two-fold dilution method, previously reported in standard methods provided by Clinical and Laboratory Standards S8 Institute (CLSI). Kanamycin and ampicillin were used as antibacterial control agents. According to the reference, the compounds (1-11) were first dissolved in DMSO+0.1% TFA at a concentration of 3.2 mg/mL and 4 μL was serially diluted in 96 μL of MH broth. Then, sequential 2-fold serial dilutions of the mix were diluted in 50 μL MH broth and 50 μL cell cultures were added to wells. […] All assays were carried out in triplicate.

Acinetobacter baumannii = settings: for MIC value: Table 15, unit inferred
Method: (§2) MIC screening of the peptides against a panel of ATCC and clinical strains was performed using broth microdilution method.^1 Briefly, peptides stock solutions in DMSO (0.1/G TFA) were diluted into Mueller Hinton Broth (MHB), followed by two-fold serial dilution in a 96-well plate. Bacteria culture in mid-log phase was diluted into MHB to yield […] colony-forming units (CFU)/mL. Equal volume of the starting inoculum was added to the peptide samples, then incubated for 18-20 h (37° C., 120 rpm). OD600 of the samples was then measured using Tecan Infinite M200 (TECAN, Männedorf, Switzerland). MIC is defined as the lowest peptide concentration to achieve more than 90% reduction in OD600 relative to the drug-free control. The experiments were repeated three times. Colistin-resistant clinical isolates are a kind gift from Dr. Jeanette Koh (National University Hospital, Singapore). Multidrug-resistant clinical isolates are a kind gift from Dr. Lakshminarayanan Rajamani (Singapore Eye Research Institute, Singapore).
(§3) Kanamycin and ampicillin were used as antibacterial control agents. […] Then, sequential 2-fold serial dilutions of the mix were diluted in 50 μL MH broth and 50 μL cell cultures were added to wells. […] All assays were carried out in triplicate.

Enterobacter cloacae = settings: for MIC value: Table 15, unit inferred
Method: as §2, §3

Escherichia coli = settings: for MIC: Escherichia coli ATCC 25922; for MIC value: Table 15, unit inferred
Method: as §2, §3

[1] = test system: Gram-positive and Gram-negative bacteria; settings: E. coli, E. cloacae, A. baumannii and K. pneumoniae
Method: as §2, §3

Klebsiella pneumoniae = settings: for MIC value: Table 15, unit inferred
Method: as §2, §3

Staphylococcus aureus = Staphylococcus aureus ATCC 29737
Method: as §2, §3

Bacillus subtilis = assay type: cell-based; settings: Bacillus subtilis ATCC 6633
Source text: as §1

Morganella morganii = assay type: cell-based; settings: Morganella morganii ATCC 25830
Source text: as §1

[2] = Table 14, preliminary screening
[3] = Klebsiella pneumoniae ATCC 700603

CC(C)[C@@H]1NC(=O)[C@@H](NC(=O)CNC(=O)[C@H](CCC(=O)O)NC(=O)CNC(=O)[C@@H](N)CCCNC(=N)N)Cc2c[nH]c3cc(ccc23)C(CCNC(=N)N)[C@@H](C(=O)N[C@@H](C)C(=O)N[C@@H](Cc2ccc(O)cc2)C(=O)N[C@H]2Cc3c[nH]c4cc(ccc34)C(CCCN)[C@@H](C(=O)N[C@@H](CCCNC(=N)N)C(=O)N[C@@H](Cc3ccccc3)C(=O)O)NC(=O)[C@H](C)NC2=O)NC1=O (some centres unmarked) [Compound 24, xenorceptide D1]
MIC value (Pseudomonas aeruginosa; Pseudomonas aeruginosa DM4150R): 32 µg/mL (≈ 18 µM)
MIC value (Pseudomonas aeruginosa; Pseudomonas aeruginosa DM23376): 16 µg/mL (≈ 9 µM)
MIC value (Pseudomonas aeruginosa; Pseudomonas aeruginosa DR4877/07): 16 µg/mL (≈ 9 µM)
MIC value (Pseudomonas aeruginosa; Pseudomonas aeruginosa DR5790/07): 16 µg/mL (≈ 9 µM)
MIC (Enterococcus faecalis): 64 µg/mL (≈ 36 µM)
MIC value (Acinetobacter baumannii; Acinetobacter baumanii ACβA1001): 4 µg/mL (≈ 2.25 µM)
MIC value (Acinetobacter baumannii; Acinetobacter baumanii ACβA1002): 4 µg/mL (≈ 2.25 µM)
MIC value (Acinetobacter baumannii; Acinetobacter baumanii ACβA1003): 4 µg/mL (≈ 2.25 µM)
MIC value (Acinetobacter baumannii; Acinetobacter baumanii ACβA1004): 4 µg/mL (≈ 2.25 µM)
MIC (Acinetobacter baumannii; Acinetobacter baumanii ATCC 19606, Table 14, preliminary screening): 2 µg/mL (≈ 1.12 µM)
MIC value (Acinetobacter baumannii; Acinetobacter baumanii ATCC 19606): 2 µg/mL (≈ 1.12 µM)
MIC value (Enterobacter cloacae; Enterobacter cloacae ATCC 13047): 4 µg/mL (≈ 2.25 µM)
MIC value (Enterobacter cloacae; Enterobacter cloacae CRE1010): 4 µg/mL (≈ 2.25 µM)
MIC value (Enterobacter cloacae; Enterobacter cloacae CRE1014): 8 µg/mL (≈ 4.5 µM)
MIC value (Enterobacter cloacae; Enterobacter cloacae CRE1015): 8 µg/mL (≈ 4.5 µM)
MIC value (Enterobacter cloacae; Enterobacter cloacae CRE1016): 8 µg/mL (≈ 4.5 µM)
MIC value (Enterobacter cloacae; Enterobacter cloacae CRE1017): 8 µg/mL (≈ 4.5 µM)
MIC (Enterobacter cloacae; Enterobacter cloacae, strain not given, Table 14, preliminary screening): 4 µg/mL (≈ 2.25 µM)
MIC (Escherichia coli; [2]): 1 µg/mL (≈ 0.562 µM)
MIC value (Escherichia coli; Escherichia coli M2): 4 µg/mL (≈ 2.25 µM)
MIC value (Escherichia coli; Escherichia coli M6): 2 µg/mL (≈ 1.12 µM)
MIC value (Escherichia coli; Escherichia coli M10): 2 µg/mL (≈ 1.12 µM)
MIC value (Escherichia coli; Escherichia coli M11): 2 µg/mL (≈ 1.12 µM)
MIC value range [1]: 1 to 4 µg/mL
MIC value (Klebsiella pneumoniae; ATCC 25922, printed under Klebsiella pneumoniae): 1 µg/mL (≈ 0.562 µM)
MIC value (Klebsiella pneumoniae; CRE1006, Klebsiella pneumoniae): 2 µg/mL (≈ 1.12 µM)
MIC (Klebsiella pneumoniae; Klebsiella pneumoniae ATC 700603, Table 14, preliminary screening): 2 µg/mL (≈ 1.12 µM)
MIC value (Klebsiella pneumoniae; [3]): 2 µg/mL (≈ 1.12 µM)
MIC value (Klebsiella pneumoniae; Klebsiella pneumoniae CRE 1007): 4 µg/mL (≈ 2.25 µM)
MIC value (Klebsiella pneumoniae; Klebsiella pneumoniae CRE1008): 4 µg/mL (≈ 2.25 µM)
MIC value (Klebsiella pneumoniae; Klebsiella pneumoniae CRE1011): 2 µg/mL (≈ 1.12 µM)
MIC value (Klebsiella pneumoniae; Klebsiella pneumoniae CRE1012): 4 µg/mL (≈ 2.25 µM)
MIC (Staphylococcus aureus; [2]): >64 µg/mL

CC[C@H](C)[C@H](NC(=O)[C@H](CCCNC(=N)N)NC(=O)[C@H]1NC(=O)[C@H]([C@@H](C)O)NC(=O)[C@@H](NC(=O)[C@H]2NC(=O)[C@H](C)NC(=O)[C@@H](NC(=O)[C@H](C)NC(=O)[C@H]3NC(=O)[C@H]([C@@H](C)CC)NC(=O)[C@@H](N)Cc4c[nH]c5cc(ccc45)[C@@H]3C(N)=O)Cc3ccc(cc3)[C@@H]2C(N)=O)Cc2c[nH]c3cc(ccc23)[C@@H]1CCCN)C(=O)O [xenorceptide A3]
MIC (Bacillus subtilis): >64 µg/mL
MIC (Morganella morganii): 64 µg/mL (≈ 42.3 µM)
MIC (Pseudomonas aeruginosa; Pseudomonas aeruginosa ATCC 9027): 64 µg/mL (≈ 42.3 µM)
MIC (Acinetobacter baumannii; Acinetobacter baumannii ATCC 19606): >64 µg/mL
MIC (Escherichia coli): 8 µg/mL (≈ 5.28 µM)
MIC (E. coli) (Escherichia coli; strain not stated, product produced and tested against E. coli): 8 µg/mL (≈ 5.28 µM)
MIC (Klebsiella pneumoniae; [3]): 8 µg/mL (≈ 5.28 µM)
MIC (Staphylococcus aureus): >64 µg/mL

From patent US20260049104A1, “PEPTIDES WITH ANTIMICROBIAL PROPERTIES” (priority 2022, published 2026)
